Format in all cases: in vivo
For one data set, the system named is bindweed. Nature of the data set: Herbicidal activity test against upland field weeds (foliar treatment test). On the set-up: key to Foliar treatment herbicidal activity, Bindweed: 0 (no control); 100 (complete control). To be noted: 50 g ai/ha, scale 0-100. An outline of the steps:
(§1)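 Weeds were raised from seed or rootstocks in horticultural soil in a greenhouse (30±5° C., 14/10 h light/dark), then foliage was hand-sprayed with compound at 50 or 75 g a.i./ha in 50% acetone with 0.1% Tween-20. Control was scored visually 0–100 against untreated plants after 14 days, or 21 if needed.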

For another data set, the system named is fall panicum. The data set is described as above. To be noted: 50 g ai/ha, scale 0-100; for pest or weed control at 50 g/ha: Panicum dichotomiflorum. In a few lines:
as §1

The test system of another data set is indian jointvetch. Nature of the data set: Herbicidal activity test against upland field weeds (soil treatment test). To be noted: 50 g ai/ha, scale 0 (no control) to 100 (complete control). In a few lines:
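Pre-emergence test: seeds or rootstocks were sown in fertilized sandy loam, and the next day the soil surface was sprayed with compound at 50 or 75 g a.i./ha in 50% acetone/0.1% Tween-20. Plants were grown in a greenhouse (30±5 °C, 14/10 h light/dark), then visually scored 0–100 against untreated at 14 d (21 d if needed).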

In another data set the test system is soybean. Nature of the data set: Phytotoxicity test for upland field crops (foliar treatment test). On the set-up: key: 0 (no harm); 9 (complete withered). In a few lines: (§2)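 Greenhouse-grown crops (30±5 °C, 14/10 h light/dark) in soil pots were foliar-sprayed with compound in 33% acetone/0.1% Tween-20 at 19˜300 g a.i./ha, 100 ml per m^2. Injury was graded 0 (no harm) to 9 (complete withered) versus untreated control at 7 and 14 days after treatment, or 21 days if needed.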

A further data set has as its system rice. The data set is described as above. On the set-up: key: 0 (no harm); 9 (complete withered). In a few lines: as §2
Another data set concerns cotton. The data set is described as above. On the set-up: key: 0 (no harm); 9 (complete withered). An outline of the steps:
as §2

Another data set has as its system wheat. The description is as above. On the set-up: key: 0 (no harm); 9 (complete withered). An outline of the steps: as §2
A further data set concerns corn. The data set is described as above. On the set-up: key: 0 (no harm); 9 (complete withered). An outline of the steps:
as §2

For a further data set, the system named is barnyard grass. Put plainly: Herbicidal activity test against upland field weeds (foliar treatment test). On the set-up: key to Foliar treatment herbicidal activity, barnyard grass: 0 (no control); 100 (complete control). As to conditions: 50 g ai/ha, scale 0-100; for pest or weed control at 50 g/ha: Echinochloa crus-galli. An outline of the steps:
as §1

Another data set has as its system quack grass. The description is as above. Also on record: key to Foliar treatment herbicidal activity, quack grass: 0 (no control); 100 (complete control). As to conditions: 50 g ai/ha, scale 0-100. An outline of the steps:
as §1

Where [1] appears, read: 50 g ai/ha, Soybean (7 days after treatment).
Where [2] appears, read: 50 g ai/ha, Soybean (14 days after treatment).
Setting [3] is: 100 g ai/ha, Soybean (7 days after treatment).
Setting [4] is: 100 g ai/ha, Soybean (14 days after treatment).
Where [5] appears, read: 50 g ai/ha, Rice (7 days after treatment).
Setting [6] is: 50 g ai/ha, Rice (14 days after treatment).
[7] abbreviates: 100 g ai/ha, Rice (7 days after treatment).
The mark [8] stands for this setting: 100 g ai/ha, Rice (14 days after treatment).
[9] abbreviates: 50 g ai/ha, Cotton (7 days after treatment).
Where [10] appears, read: 50 g ai/ha, Cotton (14 days after treatment).
The mark [11] stands for this setting: 100 g ai/ha, Cotton (7 days after treatment).
Setting [12] is: 100 g ai/ha, Cotton (14 days after treatment).
Where [13] appears, read: 50 g ai/ha, Wheat (7 days after treatment).
[14] abbreviates: 50 g ai/ha, Wheat (14 days after treatment).
[15] abbreviates: 100 g ai/ha, Wheat (7 days after treatment).
Setting [16] is: 100 g ai/ha, Wheat (14 days after treatment).
Setting [17] is: 50 g ai/ha, Corn (7 days after treatment).
Setting [18] is: 50 g ai/ha, Corn (14 days after treatment).
Where [19] appears, read: 100 g ai/ha, Corn (7 days after treatment).
Where [20] appears, read: 100 g ai/ha, Corn (14 days after treatment).

Molecules are shown by their SMILES.

For the molecule `Cn1cnc(COCc2nc(C(F)F)ccc2C(=O)Nc2nnnn2C)n1` [Compound No. 2-85], the “Foliar treatment herbicidal activity, Bindweed” value in the data set on bindweed turned out to be 99. The “Foliar treatment herbicidal activity, Fall panicum” value in the data set with fall panicum was determined as 84. In addition, the “Soil treatment herbicidal activity, Indian jointvetch” value in the data set on indian jointvetch is 55. Besides, the “Foliar treatment phytotoxicity, Soybean” value with soybean (setting [1]) turned out to be 4; with soybean (setting [2]), 6; with soybean (setting [3]) it was 6; in the data set with soybean (setting [4]), 7. Besides, the “Foliar treatment phytotoxicity, Rice” value is recorded as 7 in the data set with rice (setting [5]), 7 in the data set with rice (setting [6]), 8 in the data set on rice (setting [7]) and 1 with rice (setting [8]). Further, the “Foliar treatment phytotoxicity, Cotton” value with cotton (setting [9]) is recorded as 7; in the data set with cotton (setting [10]), 7; with cotton (setting [11]), 8; with cotton (setting [12]), 9. Moreover, the “Foliar treatment phytotoxicity, Wheat” value in the data set on wheat (setting [13]) is recorded as 0; in the data set on wheat (setting [14]), 0; with wheat (setting [15]), 2; with wheat (setting [16]) it was 0. The “Foliar treatment phytotoxicity, Corn” value in the data set with corn (setting [17]), with corn (setting [18]), with corn (setting [19]) and in the data set with corn (setting [20]) was 0 throughout. In the data set with barnyard grass, the “Foliar treatment herbicidal activity, barnyard grass” value was 99.

For the molecule `Cn1nc(COCc2nc(C(F)(F)F)ccc2C(=O)Nc2nnnn2C)nc1C#N` [Compound No. 2-134, 2-(((5-cyano-1-methyl-1H-1,2,4-triazol-3-yl)methoxy)methyl)-N-(1-methyl-1H-tetrazol-5-yl)-6-(trifluoromethyl)nicotinamide], the pest or weed control at 50 g/ha in the data set with bindweed turned out to be 98%; in the data set with fall panicum it was 50%; with quack grass it was 10%; in the data set on barnyard grass, 98%. Moreover, the “Foliar treatment phytotoxicity, Soybean” value with soybean (setting [1]) was 4; with soybean (setting [2]) it was 6; in the data set with soybean (setting [3]) it was 4; in the data set with soybean (setting [4]) it was 8. Also, the “Foliar treatment phytotoxicity, Rice” value in the data set on rice (setting [5]) was 3; in the data set with rice (setting [6]) it was 6; in the data set with rice (setting [7]), 3; in the data set on rice (setting [8]), 7. In addition, the “Foliar treatment phytotoxicity, Cotton” value is on record as 3 in the data set with cotton (setting [9]), 2 in the data set on cotton (setting [10]), 3 in the data set with cotton (setting [11]) and 8 in the data set on cotton (setting [12]). In addition, the “Foliar treatment phytotoxicity, Wheat” value with wheat (setting [13]), in the data set on wheat (setting [14]), in the data set with wheat (setting [15]) and with wheat (setting [16]) was 0 in each case. The “Foliar treatment phytotoxicity, Corn” value with corn (setting [17]), with corn (setting [18]), with corn (setting [19]) and in the data set on corn (setting [20]) was 0 throughout.

For the molecule `Cn1nc(COCc2nc(C(F)(F)F)ccc2C(=O)Nc2nnnn2C)nc1Br` [Compound No. 2-136, 2-(((5-bromo-1-methyl-1H-1,2,4-triazol-3-yl)methoxy)methyl)-N-(1-methyl-1H-tetrazol-5-yl)-6-(trifluoromethyl)nicotinamide], the pest or weed control at 50 g/ha with bindweed is 50%; in the data set on fall panicum, 50%; in the data set with barnyard grass it was 70%. The “Foliar treatment herbicidal activity, quack grass” value in the data set with quack grass came to 0. In addition, the “Foliar treatment phytotoxicity, Soybean” value was 4 in the data set on soybean (setting [1]), 6 with soybean (setting [2]), 4 in the data set on soybean (setting [3]) and 6 with soybean (setting [4]). For the same molecule, the “Foliar treatment phytotoxicity, Rice” value with rice (setting [5]) was 4; in the data set with rice (setting [6]), 6; in the data set with rice (setting [7]) it was 5; with rice (setting [8]) it was 7. For the same molecule, the “Foliar treatment phytotoxicity, Cotton” value with cotton (setting [9]) was found to be 3; with cotton (setting [10]), 6; with cotton (setting [11]), 3; in the data set with cotton (setting [12]), 8. Further, the “Foliar treatment phytotoxicity, Wheat” value with wheat (setting [13]), in the data set with wheat (setting [14]), in the data set on wheat (setting [15]) and in the data set on wheat (setting [16]) was 0 throughout. The “Foliar treatment phytotoxicity, Corn” value was determined as 0 with corn (setting [17]), 0 with corn (setting [18]), 2 with corn (setting [19]) and 3 with corn (setting [20]).

For `COC(=O)OC(C)N(C(=O)c1ccc(C(F)(F)F)nc1COCc1nnn(C)n1)c1nnnn1C` (stereo not drawn) [Compound No. 4-4, methyl(1-(N-(1-methyl-1H-tetrazol-5-yl)-2-(((2-methyl-2H-tetrazol-5-yl)methoxy)methyl)-6-(trifluoromethyl)nicotinamido)ethyl)carbonate], the “Foliar treatment herbicidal activity, Bindweed” value in the data set on bindweed was found to be 100. Besides, the “Foliar treatment herbicidal activity, Fall panicum” value with fall panicum is given as 98. Also, the “Foliar treatment herbicidal activity, quack grass” value with quack grass is listed as 0. For the same molecule, the “Foliar treatment phytotoxicity, Soybean” value in the data set with soybean (setting [1]), with soybean (setting [2]), with soybean (setting [3]) and in the data set on soybean (setting [4]) was 0 each time. Besides, the “Foliar treatment phytotoxicity, Rice” value in the data set with rice (setting [5]), in the data set on rice (setting [6]), in the data set on rice (setting [7]) and in the data set with rice (setting [8]) was 4 throughout. Also, the “Foliar treatment phytotoxicity, Cotton” value with cotton (setting [9]), in the data set on cotton (setting [10]), in the data set with cotton (setting [11]) and in the data set with cotton (setting [12]) was 0 in each case. The “Foliar treatment phytotoxicity, Wheat” value with wheat (setting [13]) was determined as 1; in the data set with wheat (setting [14]) it was 0; in the data set with wheat (setting [15]) it was 2; with wheat (setting [16]) it was 2. In addition, the “Foliar treatment phytotoxicity, Corn” value in the data set with corn (setting [17]), in the data set with corn (setting [18]), with corn (setting [19]) and in the data set on corn (setting [20]) was 0 in each case. In addition, the “Foliar treatment herbicidal activity, barnyard grass” value in the data set on barnyard grass is reported as 100.

For the origin of these results see US12495798B2, “Nicotinamide compound and herbicidal composition comprising compound” (KOREA RESEARCH INSTITUTE OF CHEMICAL TECHNOLOGY, priority 2019, dated 2025).
